This assay has as its system Burkholderia cepacia. Put plainly: MIC against Burkholderia cepacia. In kind it is cell-based. The settings on record: Table 2; comparison of compounds against Burkholderia cepacia.

Values after ≈ are worked out from the molar mass of the structure shown. Some results are limits rather than exact numbers.

The term MIC denotes the lowest concentration that inhibits growth of the organism. A high value points to a need for much substance. In turn, `Oc1ccc2ccccc2n1` [2-hydroxyquinolone] displayed an MIC of over 128 mg/L.
`Nc1ccnc2ccccc12` [4-aminoquinoline]: the minimal inhibitory concentration (MIC) was 40 mg/L (≈ 277 µM).
